Results as given in US7767665B2, “1,3-benzothiazinone derivatives and use thereof” (Takeda Pharmaceutical Company Limited, priority 2001, dated 2010).
Counter-ions that a name gives are not always drawn.

**Q.** For `CC(C)(C)OC(=O)C[S+]([O-])c1cccc(-c2nc(=O)c3ccccc3s2)n1` (stereo not shown) [Example 278, tert-Butyl {[6-(4-oxo-4H-1,3-benzothiazin-2-yl)-2-pyridyl]sulfinyl}acetate], which melting point is on record?
**A.** 158.8 to 159.1 °C

**Q.** For `CC(C)(C)OC(=O)CCc1ccnc(-c2nc(=O)c3ccccc3s2)c1` [Example 309, tert-butyl 3-[2-(4-oxo-4H-1,3-benzothiazin-2-yl)-4-pyridyl]propionate], which melting point is on record?
**A.** 135.8 to 136.7 °C

**Q.** Which melting point does the source give for `CC(C)(C)OC(=O)NCCc1ccnc(-c2nc(=O)c3ccc(Cl)cc3s2)c1` [Example 219, tert-Butyl 2-[2-(7-chloro-4-oxo-4H-1,3-benzothiazin-2-yl)-4-pyridyl]ethylcarbamate] here?
**A.** 168.2 to 169.2 °C

**Q.** With `O=c1nc(-c2ccccn2)sc2ccc(O)cc12` [Example 84, 6-Hydroxy-2-(2-pyridyl)-4H-1,3-benzothiazine-4-one] as the compound, how does the melting point read?
**A.** 313.3 to 315 °C

**Q.** Which melting point does the source give for `Cc1cc(CCC(=O)O)nc(-c2nc(=O)c3ccc(Cl)cc3s2)c1` [Example 192, 3-[6-(7-Chloro-4-oxo-4H-1,3-benzothiazin-2-yl)-4-methyl-2-pyridyl]propionic acid] here?
**A.** 232.2 to 233.2 °C

**Q.** Which melting point does the source give for `CCOP(=O)(CCc1cccc(-c2nc(=O)c3ccccc3s2)n1)OCC` here?
**A.** 148.8 to 149.8 °C

**Q.** Which melting point does the source give for `COc1ccc(-c2cccc(-c3nc(=O)c4ccccc4s3)n2)cc1` [Example 198, 2-[6-(4-Methoxyphenyl)-2-pyridyl]-4H-1,3-benzothiazine-4-one] here?
**A.** 200.1 to 201.1 °C

**Q.** With `CCCCCSc1cccc(-c2nc(=O)c3ccccc3s2)n1` [Example 129, 2-[6-(Pentylthio)-2-pyridyl]-4H-1,3-benzothiazine-4-one] as the compound, how does the melting point read?
**A.** 105 to 105.1 °C

**Q.** Which melting point does the source give for `N#CCCc1cccc(-c2nc(=O)c3ccccc3s2)n1` [Example 306, 3-[6-(4-Oxo-4H-1,3-benzothiazin-2-yl)-2-pyridyl]propionitrile] here?
**A.** 156.6 to 157 °C

**Q.** For `COC(=O)CSCc1cccc(-c2nc(=O)c3ccccc3s2)n1` [Example 258, Methyl ({[6-(4-oxo-4H-1,3-benzothiazin-2-yl)-2-pyridyl]methyl}thio)acetate], which melting point is on record?
**A.** 108 to 110 °C

**Q.** With `O=c1nc(-c2ccccn2)sc2ccc(OCCCO)cc12` [Example 118, 6-(3-Hydroxypropoxy)-2-(2-pyridyl)-4H-1,3-benzothiazine-4-one] as the compound, how does the melting point read?
**A.** 196.6 to 197.7 °C

**Q.** For `COc1ccnc(-c2nc(=O)c3ccccc3s2)c1` [Example 25, 2-(4-Methoxy-2-pyridyl)-4H-1,3-benzothiazine-4-one], which melting point is on record?
**A.** 214.1 to 214.6 °C

**Q.** Which melting point does the source give for `O=C(O)CCc1ccnc(-c2nc(=O)c3ccc(Cl)cc3s2)c1` [Example 185, 3-[2-(7-Chloro-4-oxo-4H-1,3-benzothiazin-2-yl)-4-pyridyl]propionic acid] here?
**A.** 262.9 to 263.5 °C

**Q.** With `O=c1nc(-c2ccccn2)sc2ccc(Cl)cc12` [Example 9, 6-Chloro-2-(2-pyridyl)-4H-1,3-benzothiazine-4-one] as the compound, how does the melting point read?
**A.** 269.4 to 270.1 °C

**Q.** For `CCOCCOc1ccc(-c2nc(=O)c3ccccc3s2)cn1` [Example 94, 2-[6-(2-Ethoxyethoxy)-3-pyridyl]-4H-1,3-benzothiazine-4-one], which melting point is on record?
**A.** 93.6 to 94.9 °C

**Q.** For `Cc1ccnc(-c2nc(=O)c3ccccc3s2)c1` [Example 138, 2-(4-Methyl-2-pyridyl)-4H-1,3-benzothiazine-4-one], which melting point is on record?
**A.** 199.7 to 199.9 °C

**Q.** With `CCCCCS(=O)(=O)c1cccc(-c2nc(=O)c3ccccc3s2)n1` [Example 156, 2-[6-(n-Pentylsulfonyl)-2-pyridyl]-4H-1,3-benzothiazine-4-one] as the compound, how does the melting point read?
**A.** 160 to 161 °C

**Q.** For `O=c1nc(-c2cc(CCc3nnn[nH]3)ccn2)sc2ccccc12` [Example 316, 2-{4-[2-(1H-1,2,3,4-Tetrazol-5-yl)ethyl]-2-pyridyl}-4H-1,3-benzothiazine-4-one], which melting point is on record?
**A.** 250 °C (dec.)

**Q.** With `CC(C)(C)OC(=O)COc1ccc2sc(-c3ccccn3)nc(=O)c2c1` [Example 122, tert-Butyl 2-[[4-oxo-2-(2-pyridyl)-4H-1,3-benzothiazin-6-yl]oxy]acetate] as the compound, how does the melting point read?
**A.** 183 to 184.1 °C

**Q.** Which melting point does the source give for `Cc1cccc2c(=O)nc(-c3cccc(C(=O)NCCCCCCN)n3)sc12.Cl` here?
**A.** 240 °C

**Q.** Which melting point does the source give for `CN(C)C(=O)NCCc1cccc(-c2nc(=O)c3ccccc3s2)n1` [Example 229, N,N-Dimethyl-N′-[2-[6-(4-oxo-4H-1,3-benzothiazin-2-yl)-2-pyridyl]ethyl]urea] here?
**A.** 190.2 to 191 °C

**Q.** Which melting point does the source give for `O=C(NCCc1ccnc(-c2nc(=O)c3ccccc3s2)c1)c1ccccc1` [Example 225, N-[2-[2-(4-Oxo-4H-1,3-benzothiazin-2-yl)-4-pyridyl]ethyl]benzamide] here?
**A.** 216.8 to 219.3 °C

**Q.** Which melting point does the source give for `CC(=O)c1ccc(-c2nc(=O)c3ccccc3s2)nc1` [Example 145, 2-(5-Acetyl-2-pyridyl)-4H-1,3-benzothiazine-4-one] here?
**A.** 276.3 to 276.7 °C

**Q.** With `O=c1nc(-c2ccnc(OCc3ccccc3)c2)sc2ccccc12` [Example 69, 2-(2-Benzyloxy-4-pyridyl)-4H-1,3-benzothiazine-4-one] as the compound, how does the melting point read?
**A.** 116 to 116.5 °C

**Q.** Which melting point does the source give for `O=c1nc(-c2nccs2)sc2ccccc12` [Example 348, 2-(1,3-thiazol-2-yl)-4H-1,3-benzothiazin-4-one] here?
**A.** 229.1 to 229.8 °C

**Q.** With `O=C(O)CCc1ccnc(-c2nc(=O)c3ccc(F)cc3s2)c1` [Example 186, 3-[2-(7-Fluoro-4-oxo-4H-1,3-benzothiazin-2-yl)-4-pyridyl]propionic acid] as the compound, how does the melting point read?
**A.** 240 °C (dec.)

**Q.** For `O=C(O)CCCCCOc1ccc2sc(-c3ccccn3)nc(=O)c2c1` [Example 125, 6-[[4-Oxo-2-(2-pyridyl)-4H-1,3-benzothiazin-6-yl]oxy]hexanoic acid], which melting point is on record?
**A.** 205.4 to 206.3 °C

**Q.** For `CC(C)COc1ccc2sc(-c3ccccn3)nc(=O)c2c1` [Example 117, 6-Isobutoxy-2-(2-pyridyl)-4H-1,3-benzothiazine-4-one], which melting point is on record?
**A.** 135.5 to 136.5 °C

**Q.** Which melting point does the source give for `CC(=O)N(C)c1cccc(-c2nc(=O)c3ccccc3s2)n1` [Example 110, N-Methyl-N-[6-(4-oxo-4H-1,3-benzothiazin-2-yl)-2-pyridyl]acetamide] here?
**A.** 218.3 to 220.3 °C

**Q.** Which melting point does the source give for `O=c1nc(-c2cc(C3CCCN3)ccn2)sc2ccccc12` (stereo not shown) (as salt: trifluoroacetic acid salt) [Example 353, 2-[4-(2-Pyrrolidinyl)-2-pyridyl]-4H-1,3-benzothiazine-4-one trifluoroacetic acid salt] here?
**A.** 187.5 to 189 °C

**Q.** For `CCS(=O)(=O)Cc1cccc(-c2nc(=O)c3ccccc3s2)n1` [Example 251, 2-[6-[(Ethylsulfonyl)methyl]-2-pyridyl]-4H-1,3-benzothiazine-4-one], which melting point is on record?
**A.** 188.5 to 190 °C

**Q.** Which melting point does the source give for `O=C(O)COc1ccc2sc(-c3ccccn3)nc(=O)c2c1` [Example 123, 2-[[4-Oxo-2-(2-pyridyl)-4H-1,3-benzothiazin-6-yl]oxy]acetic acid] here?
**A.** 250 °C (dec.)

**Q.** For `C[S+]([O-])c1cncc(-c2nc(=O)c3ccccc3s2)n1` (stereo not shown) [Example 288, 2-[6-(Methylsulfinyl)-2-pyrazinyl]-4H-1,3-benzothiazine-4-one], which melting point is on record?
**A.** 228.5 to 230.5 °C

**Q.** Which melting point does the source give for `CS(=O)(=O)c1cncc(-c2nc(=O)c3ccccc3s2)n1` [Example 289, 2-[6-(Methylsulfonyl)-2-pyrazinyl]-4H-1,3-benzothiazine-4-one] here?
**A.** 232 to 233 °C
